Data on five compounds can be found in patent US4902675A, “"2-pyridyl and 4-pyridyl phosphine gold (I) anti tumor complexes"” (SmithKline Beckman Corporation, priority 1986, dated 1990).

The conditions of data set [1]: literature, Struck et al. 1966; cited from earlier work.
The subject of a further data set is P388 leukemia. Put plainly: in vivo ip P388 lymphocytic leukemia mouse model, increase in lifespan. The conditions noted are these: mice bearing ip P388 leukemia; ip Days 1 through 5; figures separated by slashes are data from separate experiments; active if ≥25 percent ILS. An excerpt:
P388 lymphocytic leukemia is currently the most widely used animal tumor model for screening for antitumor agents and for detailed evaluation of active compounds. This tumor system is widely accepted as an antitumor agent screening tool because it is sensitive to virtually all of the clinically active antineoplastic agents; quantitative and reproducible; amenable for large-scale screening; and predictive for activity in other animal tumor models.
10^6 P388 leukemia cells are inoculated ip in B6D2F1 mice. Twenty-four hours later, if the tumor inoculum proves to be free of bacterial contamination (as determined by 24 hours incubation in thioglycollate broth), animals are randomized into groups of 6 and housed in shoebox cages. The compound to be evaluated is dissolved in a minimal volume of either N,N-dimethylacetamide (DMA) or 95% ethanol (depending upon solubility). An equal volume of saline is added; if the drug comes out of solution an equal volume of polyethoxylated castor oil is added and then saline qs to a concentration such that the desired dose is delivered in 0.5 ml. The final concentration of DMA, ethanol and polyethoxylated castor oil is […]. Dilutions for lower doses are made with saline so there is a decreasing proportion of organic solvents in the vehicle with decreasing dosage. These vehicles provide soluble formulations (or suspensions). Formulations are prepared immediately prior to injection. The compound is administered ip on Days 1 through 5 (i.e. treatment is initiated 24 hrs after tumor inoculation). Each experiment includes three groups of 6 animals as untreated controls and animals treated with a positive control, cisplatin, at two dose levels. Animals are weighed as a group on Days 1, 5 and 9 and average weight change (Δ wt.) is used as a reflection of toxicity. Each experiment also includes an inoculum titration-groups of 8 mice inoculated ip with 10^5 to 10^0 P388 leukemia cells. The titration is used to calculate cell kill achieved by treatment with drugs. Animals are monitored daily for mortality and experiments are terminated after 45 days. […]

The nature of data set [2]: maximally tolerated dose for female mice, ip qDX5 (P388 study). It is filed as in vivo, mouse. The conditions noted are these: B62DF female mice, ip qDX5 regimen. How it is done:
10^6 P388 leukemia cells are inoculated ip in B6D2F1 mice. Twenty-four hours later, if the tumor inoculum proves to be free of bacterial contamination (as determined by 24 hours incubation in thioglycollate broth), animals are randomized into groups of 6 and housed in shoebox cages. The compound to be evaluated is dissolved in a minimal volume of either N,N-dimethylacetamide (DMA) or 95% ethanol (depending upon solubility). An equal volume of saline is added; if the drug comes out of solution an equal volume of polyethoxylated castor oil is added and then saline qs to a concentration such that the desired dose is delivered in 0.5 ml. The final concentration of DMA, ethanol and polyethoxylated castor oil is […]. Dilutions for lower doses are made with saline so there is a decreasing proportion of organic solvents in the vehicle with decreasing dosage. These vehicles provide soluble formulations (or suspensions). Formulations are prepared immediately prior to injection. The compound is administered ip on Days 1 through 5 (i.e. treatment is initiated 24 hrs after tumor inoculation). Each experiment includes three groups of 6 animals as untreated controls and animals treated with a positive control, cisplatin, at two dose levels. Animals are weighed as a group on Days 1, 5 and 9 and average weight change (Δ wt.) is used as a reflection of toxicity. Each experiment also includes an inoculum titration-groups of 8 mice inoculated ip with 10^5 to 10^0 P388 leukemia cells. The titration is used to calculate cell kill achieved by treatment with drugs. Animals are monitored daily for mortality and experiments are terminated after 45 days. The endpoint is median survival time (MST) and increase in lifespan (ILS) which is the percentage of increase in MST relative to untreated controls. Untreated controls inoculated ip with 10^6 P388 leukemia cells generally survive for a median of 9 to 11 days. A drug is considered active if it produces ≥25 percent ILS.
^(a) maximally tolerated dose for […] female mice on an ip qDX5

The subject of another data set is B16 melanoma. The experiment in a line: in vivo ip B16 melanoma assay, increase in lifespan. Also on record: species or system mouse. To be noted: mice bearing ip B16 melanoma; ip qD × 9; ILS ≥25% indicates activity. How it is done: (§1) In this system, groups of eight B6D2F1 mice are inoculated ip with 0.5 ml of a 10% (w:v) brei of B16 melanoma prepared from pooled sc tumors excised at 14-21 days from […] donor mice. Daily treatment is begun 24 hours after tumor impantation and is continued daily for ten (10) days. The route of drug administration is ip. The mice are monitored daily for survival for sixty (60) days. Antitumor activity is assessed by prolongation of median survival time. An ILS of≥25% indicates activity in this tumor model.
(§2) ^(b) maximally tolerated dose for B6D2F1 mice on an ipqD ×
(§3) 9 regimen (Regimen is preferably qD × 10 but supply of Compound No.
(§4) 3 was extinguished on day 9).
^(c) maximum increase in lifespan produced in mice bearing ip B16

Data set [3] can be described thus: maximally tolerated dose for B6D2F1 mice, ip qD × 9 (B16 study). In kind it is in vivo, mouse. To be noted: ip qD × 9 regimen. How it is done:
as §1, §2, §3, §4

Several values for one entry are separate records, joined by “and”; a condition that tells them apart may be missing. Equal values may be shown once.

As to `c1ccc(P(CCP(c2ccccc2)c2ccccc2)c2ccccc2)cc1` [1,2-bis(diphenylphosphino)ethane], the cytotoxic activity entry in data set [1] is recorded as “cytotoxic activity”.
As to `[Cl][Au][PH](CC[PH]([Au][Cl])(c1ccccn1)c1ccccn1)(c1ccccn1)c1ccccn1` [Compound 1, μ-[1,2-Bis(di-2-pyridylphosphino)ethane]bis(chlorogold)], in the data set on P388 leukemia, the “ILS (max), maximum increase in lifespan” value is 55% and 60%. Besides, the “MTD, maximally tolerated dose” value in data set [2] is 6 mg/kg.
Regarding `[Cl][Au][PH](CC[PH]([Au][Cl])(c1ccncc1)c1ccncc1)(c1ccncc1)c1ccncc1` [Compound 2, μ-[1,2-Bis(di-4-pyridylphosphino)ethane]bis(chlorogold)], the “MTD, maximally tolerated dose” value in data set [2] is given as 12 mg/kg.
As for `[Au+].[Cl-].c1ccc(P(CCP(c2ccccn2)c2ccccn2)c2ccccn2)nc1.c1ccc(P(CCP(c2ccccn2)c2ccccn2)c2ccccn2)nc1` [Compound 3, Chlorobis[1,2-bis(di-2-pyridylphosphino)ethane]gold], in the data set on P388 leukemia, the “ILS (max), maximum increase in lifespan” value was 80% and 75% and 83% and 84%. In addition, the “ILS, maximum increase in lifespan” value in the data set on B16 melanoma is 43%. In addition, the results for the “MTD, maximally tolerated dose” value in data set [2] and in data set [3] were 8 mg/kg and 10 mg/kg, respectively.
For `OCC1OC([S][Au][PH](CC[PH]([Au][S]C2OC(CO)C(O)C(O)C2O)(c2ccccn2)c2ccccn2)(c2ccccn2)c2ccccn2)C(O)C(O)C1O` (stereo not shown) [Compound 4], the “ILS (max), maximum increase in lifespan” value with P388 leukemia was 85% and 53% and 56%. Also, the “MTD, maximally tolerated dose” value in data set [2] is recorded as 8 mg/kg.
